Nine compounds from PubChem BioAssay (NCI) can be followed below.

Common to all, as to assay: NCI tumour cell line growth inhibition, 48 h
Experiment [1] deals with A498 renal.
For experiment [2], the system named is ACHN renal.
Experiment [3] deals with HT29 colon.
The subject of experiment [4] is M14 melanoma.
The test system of experiment [5] is OVCAR-3 ovarian.
Experiment [6] relates to OVCAR-4 ovarian.
The test system of experiment [7] is SF-268 CNS.
The test system of experiment [8] is SK-OV-3 ovarian.
In experiment [9] the test system is SN12C renal.
Experiment [10] relates to UO-31 renal.

The structures appear in SMILES notation. Several values for one entry are separate records, joined by “and”; a condition that tells them apart may be missing. Identical values can stand only once.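 Values below derive from 48-hour exposures of cells grown in 96-well plates, with endpoints linearly interpolated between the two concentrations bracketing the appropriate inhibition level. At the GI50, growth is halved. TGI denotes the concentration required for complete inhibition of growth.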

In the case of `O=c1c2cc(Cl)ccc2oc2ccc(OCCCCCN3CCCCC3)cc12`, the GI50 in experiment [1] was 6.28 µM; in experiment [2], 5.28 µM; in [3], 1.27 µM; in experiment [4] it was 1.17 µM; in [5] it was 5.47 µM; in experiment [6], 5.5 µM. The GI50 is 5.28 µM in [7], 6.96 µM in [8], 5.59 µM in experiment [9] and 3.98 µM in experiment [10]. Besides, the TGI in [1] was found to be 12.8 µM; in experiment [2] it was 11.2 µM; in experiment [3] it was 3.31 µM; in experiment [4], 2.84 µM; in experiment [5], 11.5 µM; in experiment [6], 11.9 µM. Further, the TGI in [7] turned out to be 12.2 µM; in [8] it was 13.4 µM; in [9] it was 11.9 µM; in experiment [10], 10.4 µM.
As for `CC(=O)c1cccc(N2COC(C)(C)c3nc4ccccc4n3C2)c1`, the TGI in [1], in experiment [2], in experiment [3], in experiment [4], in [5] and in experiment [6] was > 100 µM throughout. Also, the TGI in [7], in experiment [8], in [9] and in experiment [10] was > 100 µM throughout.
In the case of `CN[C@@H](C)C(=O)N[C@H](C(=O)N1CCC[C@H]1C(=O)N[C@H]1c2ccccc2C[C@H]1OCC#CC#CCO[C@@H]1Cc2ccccc2[C@@H]1NC(=O)[C@@H]1CCCN1C(=O)[C@@H](NC(=O)[C@H](C)NC)C1CCCCC1)C1CCCCC1`, the GI50 in experiment [1] was 8.8 µM; in experiment [2], 14.4 µM; in experiment [3], 3.68 µM; in [4], 5.72 µM; in [5], 2.63 µM; in experiment [6] it was < 0.01 µM. The GI50 in [7] is 5.58 µM; in experiment [8], < 0.01 µM; in [9], 7.95 µM; in experiment [10], > 44.2 µM. In addition, the TGI was determined as 25.1 µM in [1]; 28.5 µM in [2]; 12.6 µM in experiment [3]; 18 µM in [4]; 11.9 µM in experiment [5]; 10.9 µM in experiment [6]. The TGI in experiment [7] was 13.5 µM; in [8], < 0.01 µM; in experiment [9], 21.6 µM; in experiment [10], > 59.3 µM.
For `O=Cc1ccc(-c2cc(C=O)c(-c3cccs3)[nH]2)s1`, the TGI in [1] is 5.73 µM and 4.49 µM; in [2] it was 75 µM and > 100 µM; in experiment [3], 75 µM; in [4], 75 µM and > 100 µM; in experiment [5], 53.7 µM and > 100 µM; in experiment [6], 75 µM and > 100 µM. Also, the TGI in [7] was > 100 µM; in experiment [8], 75 µM and > 100 µM; in [9], 75 µM and > 100 µM; in [10], 75 µM and > 100 µM. In addition, the GI50 was 78.6 µM in [2]; 27.5 µM in [4]; 52 µM in experiment [5]; 12 µM in experiment [6]; > 100 µM in [7]; > 100 µM in experiment [8]. The GI50 in experiment [10] is 34 µM.
Turning to `CC(C)=CCCC(C)c1ccc(C)c2c1OCN(CC1CCNCC1)C2` (configuration not stated), the GI50 was 12.3 µM in [1]; 15.3 µM in [2]; 3 µM in experiment [3]; 10.2 µM in experiment [4]; 15.6 µM in experiment [5]; 16 µM in experiment [6]. Besides, the GI50 in experiment [7] was 16.6 µM; in [8], 16.7 µM; in [9], 14.2 µM; in [10], 12.8 µM. Also, the TGI in experiment [1] was 26 µM; in experiment [2], 30 µM; in experiment [3] it was 8.38 µM; in [4] it was 24.5 µM; in [5] it was 31.1 µM; in [6] it was 30.7 µM. Also, the TGI in experiment [7] turned out to be 33.3 µM; in experiment [8], 31.1 µM; in experiment [9], 28.9 µM; in experiment [10] it was 27.3 µM.
Take `Cc1c[nH]c2c(O)cc3c(c12)[C@H](CCl)CN3C(=O)c1cc2cc(NC(=O)Nc3ccc4[nH]c(C(=O)N5C[C@@H](CCl)c6c5cc(O)c5[nH]cc(C)c65)cc4c3)ccc2[nH]1`: the TGI in experiment [1] was 75.7 nM and 15 µM and 0.00215 µg/mL; in experiment [3], > 100 µM and 0.00887 µg/mL; in experiment [5] it was 43.2 µM; in experiment [6] it was 48 µM; in [7] it was 58.9 nM and 82.3 µM and 0.00887 µg/mL; in experiment [8], 26.7 nM and > 100 µM and 8.88 µg/mL. For the same compound, the GI50 in experiment [2] was 8.41e-05 µM; in experiment [3], 0.00416 ng/mL; in [4] it was 0.00359 µM; in experiment [10] it was 0.0291 µM.
In the case of `O=[N+]([O-])c1cc(Cl)c(Cl)c([N+](=O)[O-])c1Cl`, the GI50 was 6.4 µM in [1]; 1.76 µM in experiment [2]; 1.18 µM in experiment [3]; 0.642 µM in experiment [4]; 1.69 µM in [5]; 1.69 µM in experiment [6]. Also, the GI50 is 1.77 µM in experiment [7], 3.88 µM in experiment [8] and 1.17 µM in experiment [10]. Also, the TGI in experiment [1] came out at 20.9 µM; in experiment [2], 3.6 µM; in experiment [3] it was 4 µM; in experiment [4] it was 2.23 µM; in experiment [5], 3.07 µM; in experiment [6], 3.06 µM. The TGI is 3.39 µM in [7], 13.4 µM in experiment [8] and 2.45 µM in experiment [10].
With `COc1cc(Cl)c2c3c(c(C(C)=O)oc13)CCC2`, the TGI in experiment [1], in experiment [2], in experiment [3], in experiment [4], in [5] and in experiment [6] was > 100 µM throughout. Also, the TGI in experiment [8] and in experiment [9] was > 100 µM each time.
Turning to `CCC1(CC)C(=O)OC(=O)C1(CC)CC`, the TGI in [1], in experiment [2], in [3], in [4], in experiment [5] and in experiment [6] was > 100 µM each time. Moreover, the TGI in experiment [7], in experiment [8] and in [10] was > 100 µM each time.
